In assay [1] the test system is Acanthamoeba castellanii Neff trophozoites. Put plainly: In vitro activity against Acanthamoeba trophozoites (alamarBlue colorimetric assay). Type of assay: cell-based, Acanthamoeba castellanii Neff (ATCC 30010). The following applies: trophozoites, 96 h, 26 °C, read-out: IC50 against Acanthamoeba castellanii Neff. The protocol: The antiamoeboid activity of the compounds was evaluated against Acanthamoeba castellanii Neff (ATCC 30010) type strain from the American Type Culture Collection. This strain was axenically incubated in PYG medium (0.75% (w/v) proteose Peptone, 0.75% (w/v) Yeast extract, and 1.5% (w/v) Glucose) supplemented with 10 µg/mL gentamicin (Sigma-Aldrich, Madrid, Spain). As for the cytotoxicity assays, murine macrophages J774A.1 (ATCC TIB-67) were used, cultivated in DMEM medium (Dulbecco’s modified eagle medium, Gibco Life Technologies, California, USA) with 10% supplement of fetal bovine serum (FBS) and 10 µg/mL gentamicin at 37 °C in a 5% CO2 incubator.
The in vitro activities of the different compounds of Laurencia were evaluated using a previously developed colorimetric assay based on the alamarBlue™ Cell Viability Reagent assay (Life Technologies, Barcelona, Spain). Briefly, 50 µL of 5 × 10⁴ trophozoites/mL were seeded onto a 96-well microtiter plate. After 15 min, the adherence of the cells to the plate bottom was confirmed by the use of the inverted microscope Leica DMIL (Leica, Wetzlar, Germany). Furthermore, 50 µL of serial dilutions of each compound was added to the 96-well microtiter plate. Finally, alamarBlue™ was placed into each well at 10% of the final volume and incubated at 26 °C with slight agitation. After 96 h, the fluorescence was measured with EnSpire Multimode Plate Reader (Perkin Elmer, Madrid, Spain) at a wavelength of 570/585 nm. The inhibitory concentration to inhibit the growth of 50% of the parasites (IC50) was calculated through nonlinear regression analysis with 95% confidence limits using the software Sigma Plot 12.0 (Systat Software Inc., London, UK). The experiments were performed three times each, allowing for standard deviation.
(In general: Alamar Blue is a resazurin reagent that responds to reducing activity.)

The test system of assay [2] is Acanthamoeba castellanii Neff cysts. Put plainly: In vitro activity against Acanthamoeba castellanii Neff cysts (alamarBlue). It counts as cell-based. The conditions noted are these: 168 h, mature cysts, 7 d incubation, read-out: IC50, cysticidal activity against A. castellanii Neff. The protocol:
The cysticidal activity of DT was determined by the alamarBlue™ assay and confirmed visually by inverted microscopy. Cysts of A. castellanii Neff were prepared as previously described. Briefly, trophozoites were transferred from PYG medium based cultures (trophozoite medium) to Neff’s encystment medium (NEM; 0.1 M KCl, 8 mM MgSO4·7H2O, 0.4 mM CaCl2·2H2O, 1 mM NaHCO3, 20 mM ammediol (2-amino-2-methyl-1,3-propanediol; Sigma Aldrich, Madrid, Spain), pH 8.8 at 25 °C) and were cultured in this medium with gentle shaking for a week in order to obtain mature cysts. After that, mature cysts were harvested and washed twice using PYG medium.
A serial dilution of the tested molecules was made in PYG. The in vitro susceptibility assay was performed in sterile 96-well microtiter plates (Corning™). To these wells, containing 50 µL of drug dilutions, 5 × 10^4 mature cysts of Acanthamoeba/mL were added. After 7 d of incubation with the drugs, the plate was centrifuged at 3000 rpm for 10 min. The supernatant was removed and replaced with 100 µL of fresh PYG medium in each well. Finally, 10 μL of the Alamar Blue Assay Reagent (Biosource, Europe, Nivelles, Belgium) was placed into each well, and the plates were then incubated for 144 h at 28 °C. The emitted fluorescence was periodically examined with an Enspire microplate reader (PerkinElmer, Waltham, MA, USA) at 570/585 nm.

Another assay has as its system A. castellanii Neff. Put plainly: Analysis of mitochondrial membrane potential (JC-1). The conditions noted are these: IC90, 24 h. Type of assay: cell-based, Acanthamoeba castellanii Neff. The protocol:
Collapse of the electrochemical gradient across the mitochondrial membrane during apoptosis was detected with the JC-1 mitochondrial membrane potential detection kit (Cell Technology, Fremont, CA, USA). After being treated with IC90 of the test compound for 24 h, the cells were centrifuged (1000 rpm × 10 min) and resuspended in JC-1 buffer. Images were taken on an EVOS FL Cell Imaging System AMF4300 (Life Technologies, San Francisco, CA, USA) from Life Technologies (Madrid, Spain). The staining pattern allows the identification of two groups in a cellular population: live cells will show only red fluorescence; cells with low mitochondrial potential, (undergoing PCD) will show a higher level of green and red fluorescence.

The text below walks through data of publication PMC6669608, “Evaluation of Oxasqualenoids from the Red Alga Laurencia viridis against Acanthamoeba” (Marine Drugs, 2019).

As usually defined, the IC50 is the midpoint of a concentration-inhibition curve. For `C=C(CC[C@H](O)[C@@]1(C)CC[C@H](C(C)(C)O)O1)[C@H]1CC[C@H]2O[C@@H]([C@]3(C)CC[C@@H](Br)C(C)(C)O3)CC[C@]2(C)O1` [Compound 1, dehydrothyrsiferol], the concentration for half-maximal inhibition (IC50) in assay [1] came out at 12.8 ± 1.38 µM; in assay [2] it was 39.27 ± 0.14 µM. Moreover, the “mitochondrial membrane potential (JC-1)” value in the assay with A. castellanii Neff was “mitochondrial membrane potential collapsed”.
